# Results taken from the supplement of paper PMC10307832.
# Experiments:
# Experiment in all cases: relative viability (nuclei count vs DMSO), 5 days (fraction); higher = more cells survive
# [1] = compound: Cn1nnc2c(C(N)=O)ncn2c1=O [Temozolomide] + CC(=O)c1c(C)c2cnc(Nc3ccc(N4CCNCC4)cn3)nc2n(C2CCCC2)c1=O [Palbociclib] (partner 0.5 µM)
# In short: (§1)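 Dosing by pin tool came one day after lung cancer cell lines were seeded in 1536-well plates, using either one drug or a fixed anchor-drug dose plus five library-drug doses (not always all listed) in √10 steps. After 5 days, nuclei were counted on 4× images. Relative viability is treated-well nuclei count divided by vehicle-well nuclei count, and values are medians of duplicate plates.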
# [2] = compound: Cn1nnc2c(C(N)=O)ncn2c1=O [Temozolomide] + CC1(C)CCC(c2ccc(Cl)cc2)=C(CN2CCN(c3ccc(C(=O)NS(=O)(=O)c4ccc(N[C@H](CCN5CCOCC5)CSc5ccccc5)c(S(=O)(=O)C(F)(F)F)c4)cc3)CC2)C1 [Navitoclax] (partner 0.5 µM)
# In short: as §1
# [3] = compound: C[C@@H](C(=O)N[C@@H](C1CCCCC1)C(=O)N2CCC[C@H]2C(=O)N[C@@H]3[C@@H](CC4=CC=CC=C34)OCC#CC#CCO[C@@H]5CC6=CC=CC=C6[C@@H]5NC(=O)[C@@H]7CCCN7C(=O)[C@H](C8CCCCC8)NC(=O)[C@H](C)NC)NC [AZD5582] + Cc1cc(Nc2cc(N3CCN(C)CC3)nc(Sc3ccc(NC(=O)C4CC4)cc3)n2)n[nH]1 [Tozasertib] (partner 0.1 µM)
# In short: as §1
# [4] = compound: Cn1nnc2c(C(N)=O)ncn2c1=O [Temozolomide] + C[C@]1(O)C[C@@H](c2nc(-c3ccc4ccc(-c5ccccc5)nc4c3)c3c(N)nccn32)C1 [Linsitinib] (partner 1 µM)
# In short: as §1
Cell Line,relative viability ([1]; first compound 0.2 µM),relative viability ([1]; first compound 0.6325 µM),relative viability ([1]; first compound 2 µM),relative viability ([1]; first compound 6.325 µM),relative viability ([1]; first compound 20 µM),relative viability ([2]; first compound 0.2 µM),relative viability ([2]; first compound 0.6325 µM),relative viability ([2]; first compound 2 µM),relative viability ([2]; first compound 6.325 µM),relative viability ([2]; first compound 20 µM),relative viability ([3]; first compound 0.001581 µM),relative viability ([3]; first compound 0.005 µM),relative viability ([3]; first compound 0.01581 µM),relative viability ([3]; first compound 0.05 µM),relative viability ([4]; first compound 0.2 µM),relative viability ([4]; first compound 0.6325 µM),relative viability ([4]; first compound 2 µM),relative viability ([4]; first compound 6.325 µM),relative viability ([4]; first compound 20 µM)
NCI-H1975,0.575,0.608,0.564,0.606,0.485,1.2,1.11,1.2,1.07,1.13,0.643,0.858,0.742,0.809,0.961,1.01,0.922,0.903,0.9
NCI-H647,0.374,0.502,0.375,0.342,0.188,1.16,1.24,1.24,0.73,0.291,0.269,0.347,0.255,0.357,1.27,1.2,1.15,0.776,0.295
NCI-H838,0.23,0.237,0.226,0.25,0.252,1.13,1.11,1.17,1.19,1.17,0.265,0.307,,0.292,1.03,1.05,1.03,1.08,1.09
NCI-H2087,0.254,0.239,0.224,0.259,0.225,1.15,1.05,1.02,0.891,0.965,0.23,0.218,0.319,0.289,1.09,0.862,1.03,0.826,0.949
NCI-H322M,0.451,0.483,0.465,0.441,0.414,,1.36,1.28,1.21,0.967,0.499,0.579,,0.523,,1.02,1.02,0.959,0.665
PC-14,0.706,0.515,0.472,0.527,0.415,1.07,1.01,1.06,0.956,0.928,0.521,0.595,0.558,0.6,0.96,0.942,0.984,0.871,0.837
NCI-H460,0.159,0.175,0.152,0.267,0.183,1.28,1.08,1.22,1.22,1.18,0.0814,0.495,0.509,0.521,0.959,0.801,0.79,0.727,0.877
SK-LU-1,0.382,0.397,0.431,0.33,0.318,1.03,0.88,0.8,0.522,0.189,0.229,0.205,0.343,0.13,1.26,1.06,1.05,0.671,0.454
H3255,,0.315,0.302,0.312,0.297,,0.523,0.469,0.485,0.0789,0.553,0.609,0.676,0.509,,0.963,0.927,0.959,0.145
NCI-H1355,0.35,0.4,0.413,0.404,0.361,0.837,0.927,0.964,0.927,0.913,0.488,0.558,0.52,0.6,0.713,0.859,0.796,0.883,0.794
SK-MES-1,0.328,0.312,0.332,0.353,0.332,1.22,1.16,1.23,1.22,1.38,0.771,0.785,0.888,0.805,1.14,1.09,1.07,1.13,1.05
EPLC-272H,0.319,0.337,0.356,0.321,0.299,1.15,1.01,1.12,0.996,0.879,0.15,,0.292,0.076,1.13,1.13,1.38,1.11,0.812
201T,0.348,0.361,0.382,0.362,0.355,1.17,1.18,1.21,1.2,1.22,1.01,1.07,0.961,1.13,0.975,1.07,1.11,1.04,0.991
LU99A,0.447,0.42,0.472,0.387,0.388,0.894,0.781,0.733,0.713,0.746,0.252,0.349,0.289,0.279,0.595,0.514,0.551,0.564,0.572
CAL-12T,0.285,0.568,0.608,0.484,0.405,1.35,1.13,1.21,1.29,1.26,0.219,0.226,0.282,0.228,0.627,0.799,0.841,0.778,0.698
NCI-H2126,0.347,0.332,0.349,0.355,0.345,0.853,0.829,0.83,0.886,0.844,0.779,0.698,0.806,0.573,0.691,0.712,0.646,0.768,0.692
BEN,0.483,0.466,0.469,0.487,0.471,0.0644,0.0697,0.0579,0.0678,0.0653,0.479,0.53,0.577,0.51,0.752,0.941,0.997,0.781,0.707
